Data as given in patent US5814646A, “Inhibitors of amyloid beta-protein production” (Eli Lilly and Company, priority 1995, dated 1998).

Each compound was assayed on Aβ production in 293 751 SWE and CHO 751 SWE cells (transfected with APP-751 Swedish mutation) (assay: Aβ production inhibition activity in cells (Aβ ELISA of conditioned media, normalized for cytotoxicity by MTT)). Details: 2.5 μg/ml.
Format: cell-based
Outline: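 293 and CHO cells stably expressing APP-751 with the Swedish mutation were seeded in 96-well plates and grown overnight at 37° C. They were pretreated with compound for two hours, then given fresh compound-containing media for two more hours. Aβ in the conditioned media was quantified by sandwich ELISA (antibodies 266 and 6C6) and normalized to MTT viability versus drug-free control.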

| Structure (SMILES) | Aβ Production Inhibition Activity, % inhibition @ 2.5 μg/ml |
| --- | --- |
| CC1(C)CC(C(=O)Nc2ccc(Cl)c(Cl)c2)CC(C)(C)N1 [Compound 231] | 40-51% |

Same assay, conditions: 10 μg/ml, % of drug-free control, normalized to MTT

| Structure (SMILES) | Aβ Production Inhibition Activity, % inhibition at 10 μg/ml [%] | inhibition at 10 µg/mL [%] |
| --- | --- | --- |
| O=C(Nc1ccc(Cl)c(Cl)c1)c1ncco1 [Compound 241] | -8 |  |
| Cc1cc(C(=O)Nc2ccc(Cl)c(Cl)c2)no1 [Compound 242] | 29 |  |
| Cc1nnc(NC(=O)Nc2cccc(Cl)c2)s1 [Compound 248] |  | 47 |
| Cc1nnc(NC(=O)Nc2ccccc2F)s1 [Compound 249] |  | 6 |
| Cc1nnc(NC(=O)Nc2c(C)cccc2C)s1 [Compound 251] |  | -13 |
| CSc1cccc(NC(=O)Nc2nnc(C)s2)c1 [Compound 252] |  | 25 |
| CNC(=O)Nc1nnc(Br)s1 [Compound 253] |  | 2 |
| CNC(=O)N(C)c1nnc(Br)s1 [Compound 254] |  | 11 |
| O=C(Nc1ccccc1)Nc1nncs1 [Compound 255] |  | 1 |
| O=C(Nc1ccc(Cl)cc1)Nc1nncs1 [Compound 256] |  | 42 |

Same assay, conditions: 2 h pretreatment + 2 h incubation

| Structure (SMILES) | IC50 [µM] |
| --- | --- |
| O=C(Nc1ccc(Cl)c(Cl)c1)Nc1nnc(Cl)s1 [Compound 232, 1-(5-chloro-1,3,4-thiadiazol-2-yl)-3-(3,4-dichlorophenyl)urea] | 2 |
| COC(=O)c1sc2ccccc2c1C(=O)Nc1ccc(Cl)c(Cl)c1 [Compound 233] | 15.2 |
| Cc1nnc(NC(=O)Nc2ccc(Cl)c(Cl)c2)s1 [Compound 234, 1-(5-methyl-1,3,4-thiadiazol-2-yl)-3-(3,4-dichlorophenyl)urea] | 5 |
| O=C(Nc1ccc(Cl)c(Cl)c1)Nc1nncs1 [Compound 235, 1-1,3,4-thiadiazol-2-yl-3-(3,4-dichlorophenyl)urea] | 10 |
| O=C(Nc1ccc(Cl)c(Cl)c1)Nc1nnc(C(F)(F)F)s1 [Compound 236, 1-(5-trifluoromethyl-1,3,4-thiadiazol-2-yl)-3-(3,4-dichlorophenyl)urea] | 4.2 |
| CC(C)(C)c1nnc(NC(=O)Nc2ccc(Cl)c(Cl)c2)s1 [Compound 237, 1-(5-t-butyl-1,3,4-thiadiazol-2-yl)-3-(3,4-dichlorophenyl)urea] | 2.9 |
| CC(C)(CCl)c1nnc(NC(=O)Nc2ccc(Cl)c(Cl)c2)s1 [Compound 238, 1-[5-(2-chloro-1,1-dimethylethyl)-1,3,4-thiadiazol-2-yl]-3-(3,4-dichlorophenyl)urea] | 1.4 |
| CCCCCCSc1nnc(NC(=O)Nc2ccc(Cl)c(Cl)c2)s1 [Compound 239, 1-(5-hexylthio-1,3,4-thiadiazol-2-yl)-3-(3,4-dichlorophenyl)urea] | 1.4 |
| O=C(Nc1ccc(Cl)c(Cl)c1)Nc1nnc(Br)s1 [Compound 240, 1-(5-bromo-1,3,4-thiadiazol-2-yl)-3-(3,4-dichlorophenyl)urea] | 1.8 |
| O=C(Nc1ccc(Cl)c(Cl)c1)c1nccs1 [Compound 243] | 19.4 |
| CC(C)(C)c1cc(C(=O)Nc2ccc(Cl)c(Cl)c2)on1 [Compound 245] | 9.8 |
| CC(C)(C)c1noc(C(=O)Nc2ccc(Cl)c(Cl)c2)n1 [Compound 246] | 5.8 |
| O=C(Nc1ccc(Cl)c(Cl)c1)c1nc(C(F)(F)F)no1 [Compound 247] | 4.4 |
| Cc1nnc(NC(=O)Nc2ccc(F)c(Cl)c2)s1 [Compound 250, 1-(5-methyl-1,3,4-thiadiazol-2-yl)-3-(4-fluoro-3-chlorophenyl)urea] | 9.8 |
